Key:
Type in all cases: cell-based
[1] = test system: p38 phosphorylation in RAW264.7 cells; assay: Western blot, phosphorylation of p38 induced by RANKL; conditions: 7.5 μM and 10 μM, RANKL 15 minutes, FIG. 11
Protocol: MAP kinases including ERK, JNK and p38 are stimulated by RANKL to be phosphorylized and further influence the down-stream key transcription factors which induce the differentiation of osteoclast-like cells such as c-Fos, NFATc1, etc. Before estimating the drug effect, 10 ng/ml RANKL are used to induce the phosphorylation of ERK, JNK and p38 at different time points. […] It is shown that KMUP-1 can reduce the activation of MAP kinases induced by RANKL. […] The proteins were collected by scraping and were centrifuged (13,000 rpm, 4° C., 30 minutes). The supernatant was stored in an eppendorf in −80° C. • c) Concentrations of the proteins were examined by Bio-Red DC Protein Assay. After knowing the concentrations, the proteins were diluted to specific concentrations by adding ddH2O. One forth volume of the diluted proteins of sample buffer was added into the diluted proteins and was put in boiled water for 5 min and then was chilled on ice for 5 minutes. After short time centrifugation, the diluted proteins could be injected into wells of a gel. The gel was run at 100 V for 10 minutes until the proteins were driven to the intersection between a loading gel and a running gel. Then, the voltage was swopped to 200 V for 40 minutes. • d) A PVDF membrane was immersed in Methanol for 2 minutes. After two washes in ddH2O, the membrane was immersed in transfer buffer for 15 minutes. […]

[2] = test system: MMP-9 protein in RAW264.7 cells; assay: Western blot, amount of MMP-9 protein induced by RANKL; conditions: RANKL 24 hours, FIG. 19
Protocol: KMUP-1 influences there major up-stream signal transduction pathways which are related to RANK/RANKL. Western blot is used to estimate the amount of matrix metalloproteinase (MMP)-2 and MMP-9 which are related to the dissolution of osteoclast-like cells, and the enzyme activity of MMP-2 and MMP-9 are estimated via Gelatin Zymography. […] The proteins were collected by scraping and were centrifuged (13,000 rpm, 4° C., 30 minutes). The supernatant was stored in an eppendorf in −80° C. • c) Concentrations of the proteins were examined by Bio-Red DC Protein Assay. After knowing the concentrations, the proteins were diluted to specific concentrations by adding ddH2O. One forth volume of the diluted proteins of sample buffer was added into the diluted proteins and was put in boiled water for 5 min and then was chilled on ice for 5 minutes. After short time centrifugation, the diluted proteins could be injected into wells of a gel. The gel was run at 100 V for 10 minutes until the proteins were driven to the intersection between a loading gel and a running gel. Then, the voltage was swopped to 200 V for 40 minutes. • d) A PVDF membrane was immersed in Methanol for 2 minutes. After two washes in ddH2O, the membrane was immersed in transfer buffer for 15 minutes. A SDS-PAGE was put on the membrane, and wet paper was flanked them. […]

HMGB1 in RAW264.7 cells = assay: Western blot, RANKL-induced transfer of HMGB1 from nucleus to extracellular space; conditions: 5 μM, 7.5 μM and 10 μM for 24 hours, 10 ng/ml RANKL 18 hours, dose dependent, FIGS. 22(B), 23(B), 24(B)
Protocol: HMGB1 can affect the proliferation and differentiation of osteoclasts, the HMGB1 which originally exists in a cell nuclear is stimulated by RANKL to transfer to cytoplasm or extracellular space, and the HMGB1 in the extracellular space like pro-inflammatory cytokines can regulate the proliferation and differentiation of osteoclasts via RANK/RANKL pathway or other pathways. 10 ng/ml RANKL is used to stimulate RAW264.7 cells, and the extracellular medium, cytoplasm and nucleus are separated at 0 hours, 6 hours, 12 hours, 18 hours and 24 hours, and then via western blot to confirm the expression level of the HMGB1. After stimulating 24 hours, the HMGB1 obviously transfers to the extracellular space from the nucleus and the cytoplasm (FIGS. 22(A), 23(A), and 24(A)). Moreover, when it is stimulated by RANKL for 18 hours, the effect of transferring to the extracellular space and the cytoplasm is most obvious. Different concentrations of KMUP-1 are administrated for 24 hours, and 10 ng/ml RANKL is used to stimulate for 18 hours. […] Nuclear proteins were extracted according to the instructions of NE-PER kit. 2.5×10^6 cells were plated per well in 24-well plates. […] Subsequently, the cells were added by 5.5 μ[…] and shaken for 5 seconds and then put on ice for 1 minute. After that, the cells were shaken again for 5 seconds and centrifuged (10,000 rpm, 4° C., 5 minutes). […]

Cn1c(=O)c2c(ncn2CCN2CCN(c3ccccc3Cl)CC2)n(C)c1=O [KMUP-1, 7-[2-[4-(2-Chlorophenyl)piperazin-1-yl]ethyl] theophylline]
phosphorylation of p38 induced by RANKL [1]: can efficiently inhibit the phosphorylation of ERK, JNK and p38 induced by RANKL | amount of MMP-9 protein induced by RANKL [2]: can efficiently inhibit the amount of MMP-2 and MMP-9 proteins | RANKL-induced transfer of HMGB1 to extracellular space from cell nucleus (HMGB1 in RAW264.7 cells): can inhibit that RANKL induces HMGB1 to transfer to extracellular space from a cell nuclear

Reference: patent publication US8507506B2, “Theophylline derivative inhibits osteoporosis” (Kaohsiung Medical University, priority 2011, dated 2013)
